Reference: ChEMBL document CHEMBL1201862, “PubChem BioAssay data set” (2004)
Calls of active or inactive are those of the source.

Tests used:
[1] = target: T1, Runt-related transcription factor 1/Core-binding factor subunit beta (Homo sapiens, UniProt Q01196+Q13951); experiment: Runt domain/CBFb-SMMHC interaction disruptors – biochemical, TR-FRET (AID 1438); format: protein assay
[2] = target: T1, Runt-related transcription factor 1/Core-binding factor subunit beta; experiment: Confirmation of compounds inhibiting the binding between the RUNX1 Runt domain and CBFb-SMMHC via a fluorescence resonance energy transfer (FRET) assay. [Related pubchem assays (depositor defined):AID1434, AID1438, AID1496, AID1550, AID1645]; format: protein assay
[3] = target: T1, Runt-related transcription factor 1/Core-binding factor subunit beta; experiment: disruptors of Runt domain/CBFb-SMMHC interaction – biochemical, FRET, Cerulean-Runt, Venus-CBFb-SMMHC, uHTS, […] (AID 1434); format: protein assay
[4] = target: T2, Mannose-6-phosphate isomerase (Homo sapiens, UniProt P34949); experiment: phosphomannose isomerase inhibition – biochemical, fluorescence intensity, confirmation (AID 1535)
T2 sequence (P34949 whole entry): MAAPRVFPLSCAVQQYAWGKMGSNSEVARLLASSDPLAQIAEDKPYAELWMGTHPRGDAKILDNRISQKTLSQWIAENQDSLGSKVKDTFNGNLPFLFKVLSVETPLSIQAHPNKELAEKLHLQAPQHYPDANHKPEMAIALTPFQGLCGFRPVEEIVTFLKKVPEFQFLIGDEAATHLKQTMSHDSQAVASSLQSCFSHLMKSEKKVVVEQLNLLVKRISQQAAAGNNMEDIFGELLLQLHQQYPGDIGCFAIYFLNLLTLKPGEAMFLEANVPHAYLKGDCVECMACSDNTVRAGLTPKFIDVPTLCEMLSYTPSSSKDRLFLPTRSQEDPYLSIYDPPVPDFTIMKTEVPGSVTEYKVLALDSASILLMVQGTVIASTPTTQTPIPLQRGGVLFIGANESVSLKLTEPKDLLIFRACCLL

[5] = target: T2, Mannose-6-phosphate isomerase; experiment: MPI enzyme activity inhibition – biochemical, fluorescence intensity, coupled assay, primary screen (AID 1209)
Phosphomannomutase 2 = target: T3, Phosphomannomutase 2 (Homo sapiens, UniProt O15305); experiment: Counter screen SAR assay for PMM2 inhibitors via a fluorescence intensity assay. [Related pubchem assays (depositor defined):AID1545, AID1574]
T3 sequence (O15305 whole entry): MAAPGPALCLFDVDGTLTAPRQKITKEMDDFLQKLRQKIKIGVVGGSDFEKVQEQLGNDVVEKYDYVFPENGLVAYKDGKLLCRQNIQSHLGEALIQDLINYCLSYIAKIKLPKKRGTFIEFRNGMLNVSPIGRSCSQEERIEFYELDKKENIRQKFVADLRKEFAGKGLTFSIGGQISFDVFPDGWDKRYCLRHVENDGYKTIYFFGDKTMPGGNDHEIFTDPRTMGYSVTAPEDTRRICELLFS

[6] = target: T4, Tyrosine-protein phosphatase non-receptor type 7 (Homo sapiens, UniProt P35236); experiment: SAR analysis of chemical inhibitors of HePTP using a Fluorescent assay - Set 2. [Related pubchem assays (depositor defined):AID1059, AID1077, AID1661, AID2085, AID521]; format: functional
T4 sequence (P35236 whole entry): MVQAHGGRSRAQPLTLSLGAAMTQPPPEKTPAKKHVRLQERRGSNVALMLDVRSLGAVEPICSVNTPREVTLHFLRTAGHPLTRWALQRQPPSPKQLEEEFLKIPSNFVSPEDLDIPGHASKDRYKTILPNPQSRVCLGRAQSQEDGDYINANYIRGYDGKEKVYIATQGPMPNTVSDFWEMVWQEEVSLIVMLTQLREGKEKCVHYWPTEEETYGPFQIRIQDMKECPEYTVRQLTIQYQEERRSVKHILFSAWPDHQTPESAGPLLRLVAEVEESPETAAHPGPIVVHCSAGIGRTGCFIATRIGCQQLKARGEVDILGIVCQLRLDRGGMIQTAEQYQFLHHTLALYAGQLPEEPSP

[7] = target: Dual specificity protein phosphatase 3 (Homo sapiens, UniProt P51452); experiment: SAR VHR1 Fluorescent Assay for In Vitro dose response studies Set 2. [Related pubchem assays (depositor defined):AID1654, AID1661, AID1878]; format: functional
Chain of Dual specificity protein phosphatase 3 (P51452 whole entry): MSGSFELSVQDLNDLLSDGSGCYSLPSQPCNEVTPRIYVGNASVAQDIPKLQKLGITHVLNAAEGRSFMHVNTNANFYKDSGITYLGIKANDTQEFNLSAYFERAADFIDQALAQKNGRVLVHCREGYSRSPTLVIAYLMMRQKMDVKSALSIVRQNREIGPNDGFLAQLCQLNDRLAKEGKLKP

cells = format: functional
[8] = microbe, parasite or virus in culture; format: functional; conditions: Mycobacterium tuberculosis
[9] = Vero E6 cell cytotoxicity, dose response, cytotoxicity control for non-replicating M. tuberculosis project, secondary assay (AID 492998); format: functional, VeroE6; conditions: Vero C1008
[10] = target: T5, Zinc finger protein mex-5 (Caenorhabditis elegans, UniProt Q9XUB2); experiment: potency of MEX-5 RNA-binding blockers – biochemical, C. elegans, fluorescence polarization, dose response (AID 1960)
T5 sequence (Q9XUB2 whole entry): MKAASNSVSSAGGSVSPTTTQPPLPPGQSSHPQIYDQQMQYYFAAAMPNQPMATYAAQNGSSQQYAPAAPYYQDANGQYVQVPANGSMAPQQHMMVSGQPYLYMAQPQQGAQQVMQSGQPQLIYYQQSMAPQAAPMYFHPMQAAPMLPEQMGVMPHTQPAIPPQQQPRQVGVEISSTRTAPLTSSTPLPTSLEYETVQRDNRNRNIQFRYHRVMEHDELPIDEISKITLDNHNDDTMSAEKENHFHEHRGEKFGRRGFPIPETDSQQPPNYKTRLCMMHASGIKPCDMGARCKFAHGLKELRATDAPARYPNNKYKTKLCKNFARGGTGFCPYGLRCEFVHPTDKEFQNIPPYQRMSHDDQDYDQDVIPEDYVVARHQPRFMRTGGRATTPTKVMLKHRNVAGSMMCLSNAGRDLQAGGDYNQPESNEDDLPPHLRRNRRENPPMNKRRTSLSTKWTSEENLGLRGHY

Beta-lactamase [11] = target: Beta-lactamase (Pseudomonas aeruginosa, UniProt Q79MP6);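 note: biochemical dose-response test of metallo-beta-lactamase enzyme inhibition, read out by epi-absorbance; purified recombinant IMP-1 metallo-beta-lactamase with nitrocefin as substrate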
Chain of Beta-lactamase (Pseudomonas aeruginosa, UniProt Q79MP6) (Q79MP6 whole entry): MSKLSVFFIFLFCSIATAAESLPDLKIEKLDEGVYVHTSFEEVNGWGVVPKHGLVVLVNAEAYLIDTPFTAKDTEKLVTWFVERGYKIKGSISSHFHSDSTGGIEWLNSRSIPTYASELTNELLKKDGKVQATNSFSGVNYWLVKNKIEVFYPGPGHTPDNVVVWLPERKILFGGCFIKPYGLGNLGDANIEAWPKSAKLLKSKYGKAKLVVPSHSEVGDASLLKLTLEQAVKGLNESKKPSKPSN

Ion channel NompC = Ion channel NompC (Danio rerio, UniProt Q7T1G6); experiment: Dose response cell-based high-throughput screening assay for agonists of the transient receptor potential channel N1 (TRPN1). [Related pubchem assays (depositor defined):AID1424, AID1448]; format: functional
Mucolipin-3 = Mucolipin-3 (Homo sapiens, UniProt Q8TDD5); experiment: Fluorescence counterscreen assay for […] agonists: dose response cell-based high-throughput screening assay to identify agonists of the transient receptor potential channel ML3 (TRPML3). [Related pubchem assays: 1424, 1448 ]; format: functional
Chain of Mucolipin-3 (Q8TDD5 whole entry, the tested form may be a part): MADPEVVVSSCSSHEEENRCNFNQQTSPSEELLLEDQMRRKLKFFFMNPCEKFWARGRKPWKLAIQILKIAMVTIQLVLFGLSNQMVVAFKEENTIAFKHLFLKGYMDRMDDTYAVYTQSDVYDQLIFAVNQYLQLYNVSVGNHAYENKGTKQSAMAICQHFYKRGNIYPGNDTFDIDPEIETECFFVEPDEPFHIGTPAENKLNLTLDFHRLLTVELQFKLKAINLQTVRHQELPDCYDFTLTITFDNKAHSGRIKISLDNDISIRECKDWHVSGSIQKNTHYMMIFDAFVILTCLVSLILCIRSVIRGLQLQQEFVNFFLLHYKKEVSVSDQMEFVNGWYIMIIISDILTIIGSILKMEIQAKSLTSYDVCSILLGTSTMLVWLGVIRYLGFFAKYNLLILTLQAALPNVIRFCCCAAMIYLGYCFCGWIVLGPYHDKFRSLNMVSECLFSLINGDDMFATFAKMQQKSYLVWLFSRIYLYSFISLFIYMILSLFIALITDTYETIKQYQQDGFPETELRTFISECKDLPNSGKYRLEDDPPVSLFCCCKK

[12] = target: T6, RNA-binding protein pos-1 (Caenorhabditis elegans, UniProt G5EF15); experiment: disruptors of C. elegans POS-1 RNA interaction – biochemical, fluorescence polarization, dose response (AID 1964);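 note: purified POS-1 fused to maltose binding protein made in E. coli; potency of compounds blocking POS-1 binding to fluorescent RNA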
T6 sequence (G5EF15 whole entry): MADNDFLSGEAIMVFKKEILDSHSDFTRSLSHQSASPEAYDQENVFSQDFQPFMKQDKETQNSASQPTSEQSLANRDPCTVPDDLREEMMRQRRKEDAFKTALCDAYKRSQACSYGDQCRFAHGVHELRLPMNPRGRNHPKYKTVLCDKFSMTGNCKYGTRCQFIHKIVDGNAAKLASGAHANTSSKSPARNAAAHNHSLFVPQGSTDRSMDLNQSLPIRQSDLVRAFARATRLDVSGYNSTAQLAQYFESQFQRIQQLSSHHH

Beta-lactamase [13] = target: Beta-lactamase (Salmonella choleraesuis (strain SC-B67), UniProt Q5J463)
Chain of Beta-lactamase (Salmonella choleraesuis (strain SC-B67), UniProt Q5J463) (Q5J463 whole entry): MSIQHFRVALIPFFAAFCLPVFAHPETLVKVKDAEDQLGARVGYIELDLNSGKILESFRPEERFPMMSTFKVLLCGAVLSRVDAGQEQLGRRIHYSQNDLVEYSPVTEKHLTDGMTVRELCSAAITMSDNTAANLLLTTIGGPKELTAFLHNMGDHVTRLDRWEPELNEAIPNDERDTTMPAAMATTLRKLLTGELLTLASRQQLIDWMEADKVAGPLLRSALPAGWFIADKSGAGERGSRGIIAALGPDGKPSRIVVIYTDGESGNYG

[14] = target: Peroxisome proliferator-activated receptor gamma (Homo sapiens, UniProt P37231); experiment: PPARg transcriptional activation, reporter cells – cell-based, luminescence, assay provider, dose response (AID 504447); format: functional
Chain of Peroxisome proliferator-activated receptor gamma (P37231 whole entry): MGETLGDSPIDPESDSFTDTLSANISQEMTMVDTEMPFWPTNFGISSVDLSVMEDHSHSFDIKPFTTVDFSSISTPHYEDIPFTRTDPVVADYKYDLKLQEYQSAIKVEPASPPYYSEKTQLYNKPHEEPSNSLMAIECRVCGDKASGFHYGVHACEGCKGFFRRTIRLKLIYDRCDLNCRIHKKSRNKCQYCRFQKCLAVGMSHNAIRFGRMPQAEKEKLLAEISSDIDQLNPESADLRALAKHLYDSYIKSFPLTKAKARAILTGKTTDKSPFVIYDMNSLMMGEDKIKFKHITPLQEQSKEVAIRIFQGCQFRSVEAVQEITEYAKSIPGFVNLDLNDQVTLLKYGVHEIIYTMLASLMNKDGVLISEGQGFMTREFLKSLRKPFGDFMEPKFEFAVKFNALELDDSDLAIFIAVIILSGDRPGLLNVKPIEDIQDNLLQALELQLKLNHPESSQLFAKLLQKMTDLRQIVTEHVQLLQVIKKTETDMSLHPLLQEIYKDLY

[15] = target: Sphingosine 1-phosphate receptor 4 (Homo sapiens, UniProt O95977); experiment: Late-stage fluorescence dose response cell-based assay to identify agonists of the Sphingosine 1-Phosphate Receptor 4 (S1P4): purchased compounds EC50. [Related pubchem assays (depositor defined):AID1509, AID1523, AID1563, AID1686, AID1701, AID1801]; format: functional
Chain of Sphingosine 1-phosphate receptor 4 (O95977 whole entry): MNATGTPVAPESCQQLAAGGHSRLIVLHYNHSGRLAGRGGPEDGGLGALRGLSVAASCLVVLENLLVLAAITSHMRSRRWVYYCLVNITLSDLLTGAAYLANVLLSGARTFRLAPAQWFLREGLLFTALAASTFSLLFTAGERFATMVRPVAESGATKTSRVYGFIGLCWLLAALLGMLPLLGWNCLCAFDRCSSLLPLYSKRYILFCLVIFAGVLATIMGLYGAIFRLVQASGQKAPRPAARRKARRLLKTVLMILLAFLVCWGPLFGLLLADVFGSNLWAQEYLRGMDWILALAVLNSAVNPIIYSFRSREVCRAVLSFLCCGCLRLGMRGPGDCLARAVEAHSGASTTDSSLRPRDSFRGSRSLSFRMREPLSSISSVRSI

[16] = target: G-protein coupled receptor 55 (Homo sapiens, UniProt Q9Y2T6); experiment: SAR Analysis of Selective Antagonists of GPR55 using an Image-Based Assay - Set 4. [Related pubchem assays (depositor defined):AID2013, AID2026]; format: functional;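 note: antagonism of response to 5 µM lysophosphatidylinositol agonist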
Chain of G-protein coupled receptor 55 (Q9Y2T6 whole entry): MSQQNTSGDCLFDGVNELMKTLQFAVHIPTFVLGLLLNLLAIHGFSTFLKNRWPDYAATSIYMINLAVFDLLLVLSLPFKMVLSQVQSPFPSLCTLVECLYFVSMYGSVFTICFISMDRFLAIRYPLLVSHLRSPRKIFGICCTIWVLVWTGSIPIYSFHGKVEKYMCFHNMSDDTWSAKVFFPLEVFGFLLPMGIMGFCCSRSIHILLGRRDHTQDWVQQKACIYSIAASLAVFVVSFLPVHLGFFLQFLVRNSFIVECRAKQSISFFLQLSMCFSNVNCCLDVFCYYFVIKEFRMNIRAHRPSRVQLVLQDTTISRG

Cannabinoid receptor 2 [17] = target: T7, Cannabinoid receptor 2 (Homo sapiens, UniProt P34972); experiment: SAR analysis of agonists of the Cannabinoid Receptor 2 using an Image-Based Assay - Set 3. [Related pubchem assays (depositor defined):AID2013, AID2026]; format: functional
T7 sequence (P34972 whole entry): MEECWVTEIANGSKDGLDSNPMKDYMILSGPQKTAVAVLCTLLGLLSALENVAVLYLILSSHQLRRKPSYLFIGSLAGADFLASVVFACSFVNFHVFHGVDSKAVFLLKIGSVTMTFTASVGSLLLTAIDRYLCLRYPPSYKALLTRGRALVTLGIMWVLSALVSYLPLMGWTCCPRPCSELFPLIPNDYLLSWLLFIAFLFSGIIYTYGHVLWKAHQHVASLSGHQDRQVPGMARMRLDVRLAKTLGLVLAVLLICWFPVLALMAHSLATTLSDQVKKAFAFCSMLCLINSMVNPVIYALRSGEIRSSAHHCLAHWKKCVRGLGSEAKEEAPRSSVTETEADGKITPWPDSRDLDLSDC

Cannabinoid receptor 2 [18] = target: T7, Cannabinoid receptor 2; experiment: SAR analysis of antagonists of the Cannabinoid Receptor 2 using an Image-Based Assay - Set 3. [Related pubchem assays (depositor defined):AID2013, AID2026]; format: functional
[19] = target: T8, G-protein coupled receptor 35 (Homo sapiens, UniProt Q9HC97); experiment: SAR analysis of Agonists of the GPR35 Receptor using an Image-Based Assay - Set 4. [Related pubchem assays (depositor defined):AID2013, AID2026]; format: functional
T8 sequence (Q9HC97 whole entry): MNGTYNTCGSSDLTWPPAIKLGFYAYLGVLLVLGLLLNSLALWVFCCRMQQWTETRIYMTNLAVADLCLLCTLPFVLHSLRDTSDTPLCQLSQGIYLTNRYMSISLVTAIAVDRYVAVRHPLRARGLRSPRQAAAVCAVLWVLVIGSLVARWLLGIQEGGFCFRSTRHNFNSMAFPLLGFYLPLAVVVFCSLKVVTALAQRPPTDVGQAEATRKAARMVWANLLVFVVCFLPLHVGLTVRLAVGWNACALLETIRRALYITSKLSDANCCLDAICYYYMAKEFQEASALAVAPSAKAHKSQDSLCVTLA

[20] = target: T8, G-protein coupled receptor 35; experiment: SAR analysis of Antagonists of the GPR35 Receptor using an Image-Based Assay - Set 6. [Related pubchem assays (depositor defined):AID2013, AID2026]; format: functional
Cannabinoid receptor 1 [21] = target: T9, Cannabinoid receptor 1 (Homo sapiens, UniProt P21554); experiment: SAR analysis of antagonists of the Cannabinoid Receptor 1 using an Image-Based Assay - Set 4. [Related pubchem assays (depositor defined):AID2013, AID2026]; format: functional
T9 sequence (P21554 whole entry): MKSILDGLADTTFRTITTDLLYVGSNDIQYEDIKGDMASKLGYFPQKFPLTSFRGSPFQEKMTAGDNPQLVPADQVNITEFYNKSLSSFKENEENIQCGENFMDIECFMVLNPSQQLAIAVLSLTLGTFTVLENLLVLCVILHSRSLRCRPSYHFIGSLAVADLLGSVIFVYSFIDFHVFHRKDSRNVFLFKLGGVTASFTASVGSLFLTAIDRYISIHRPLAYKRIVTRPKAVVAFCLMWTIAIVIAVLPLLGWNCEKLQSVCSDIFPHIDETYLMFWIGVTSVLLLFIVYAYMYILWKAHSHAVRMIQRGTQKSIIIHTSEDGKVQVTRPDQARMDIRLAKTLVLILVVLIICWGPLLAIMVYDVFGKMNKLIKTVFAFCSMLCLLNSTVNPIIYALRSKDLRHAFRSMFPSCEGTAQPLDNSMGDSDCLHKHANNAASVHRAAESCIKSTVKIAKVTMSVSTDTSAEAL

Cannabinoid receptor 1 [22] = target: T9, Cannabinoid receptor 1; experiment: SAR analysis of agonists of the Cannabinoid Receptor 1 using an Image-Based Assay - Set 4. [Related pubchem assays (depositor defined):AID2013, AID2026]; format: functional

T1 sequence (Q01196 whole entry, the tested form may be a part): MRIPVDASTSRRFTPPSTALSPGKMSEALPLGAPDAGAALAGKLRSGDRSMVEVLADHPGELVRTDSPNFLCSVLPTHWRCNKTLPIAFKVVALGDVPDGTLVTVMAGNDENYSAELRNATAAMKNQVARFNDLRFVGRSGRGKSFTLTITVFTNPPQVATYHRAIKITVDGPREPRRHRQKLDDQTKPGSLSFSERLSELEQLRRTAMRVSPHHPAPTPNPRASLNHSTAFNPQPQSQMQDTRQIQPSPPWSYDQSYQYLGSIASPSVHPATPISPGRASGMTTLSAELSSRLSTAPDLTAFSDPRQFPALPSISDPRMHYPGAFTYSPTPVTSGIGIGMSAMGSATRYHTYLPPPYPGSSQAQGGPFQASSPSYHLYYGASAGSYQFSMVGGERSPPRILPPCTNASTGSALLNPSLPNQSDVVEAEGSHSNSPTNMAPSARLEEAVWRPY
T1 sequence (Q13951 whole entry, the tested form may be a part): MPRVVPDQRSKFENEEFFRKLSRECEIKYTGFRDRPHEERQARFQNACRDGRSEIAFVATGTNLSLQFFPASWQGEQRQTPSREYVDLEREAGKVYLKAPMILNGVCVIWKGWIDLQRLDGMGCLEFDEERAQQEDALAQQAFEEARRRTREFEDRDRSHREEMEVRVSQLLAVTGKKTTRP

**Q.** Which results are given for Cc1nc2ccc(S(=O)(=O)Nc3ccc(-c4nc5cccnc5s4)cc3)cc2s1?
**A.** IC50 [1]: > 100 µM (inactive); IC50 [2]: 0.713 µM (active); IC50 [3]: 1.6 µM (active)

**Q.** With CCOc1ccc(NC(=S)Nc2cc(C)n[nH]2)cc1 as the molecule, how does the IC50 [4] read?
**A.** > 50 µM (inactive)

**Q.** And the IC50 [5]?
**A.** 9.41 µM (active)

**Q.** What about the IC50 (Phosphomannomutase 2) of the same molecule?
**A.** > 100 µM (inactive)

**Q.** And the IC50 [6]?
**A.** > 100 µM (inactive)

**Q.** And the IC50 [7]?
**A.** > 100 µM (inactive)

**Q.** With Cc1cc(C)n2[nH]c(=O)c(N=Nc3cccc(C(F)(F)F)c3)c2n1 as the molecule, how does the IC50 (cells) read?
**A.** 18.7 µM (active)

**Q.** What about the CC50 [8] of the same molecule?
**A.** 26.2 µM (active)

**Q.** What about the CC50 [9] of the same molecule?
**A.** 20 µM (active)

**Q.** Which EC50 [10] does the source give for CCCN1C(=O)c2cccc3c(N4CCCCC4)ccc(c23)C1=O here?
**A.** 51 µM (inconclusive)

**Q.** What about the IC50 (Beta-lactamase [11]) of the same molecule?
**A.** > 59.6 µM (inactive)

**Q.** And the EC50 (Ion channel NompC)?
**A.** > 9.97 µM (inactive)

**Q.** And the EC50 (Mucolipin-3)?
**A.** > 9.97 µM (not active)

**Q.** What about the EC50 [12] of the same molecule?
**A.** 29.8 µM (active)

**Q.** What about the IC50 (Beta-lactamase [13]) of the same molecule?
**A.** > 59.6 µM (inactive)

**Q.** For O=C(CSc1nc(=O)n(CCN2CCOCC2)c2c1CCCC2)Nc1cccc([N+](=O)[O-])c1, which EC50 [14] is on record?
**A.** 0.631 µM (active)

**Q.** For CC(=O)c1ccccc1NC(=O)C(C)OC(=O)c1c(C)nn(Cc2ccccc2)c1Cl (stereo unspecified), which EC50 [15] is on record?
**A.** > 50 µM (inactive)

**Q.** Which results are given for O=C(Cc1ccccc1F)N1CCC(n2nc(-c3ccccc3)oc2=O)CC1?
**A.** IC50 [16]: > 32 µM (inactive); EC50 (Cannabinoid receptor 2 [17]): > 32 µM (inactive); IC50 (Cannabinoid receptor 2 [18]): > 32 µM (inactive); EC50 [19]: > 32 µM (inactive); IC50 [20]: > 32 µM (inactive); IC50 (Cannabinoid receptor 1 [21]): 17.9 µM (inactive); EC50 (Cannabinoid receptor 1 [22]): > 32 µM (inactive)
